Test results: PMC3596113 (Clinical cancer research : an official journal of the …, 2012)
Read-outs that look alike come from different tables or passages of the source. Marks after values point to notes of the source that are not given here.

Legend:
[1] = test system: phosphorylation of histone H2Ax in leukemia blast cells; experiment: H2Ax phosphorylation in marrow blasts; format: in vivo, human
[2] = test system: relapsed and refractory acute leukemias
Chk2 = conditions: cited from earlier work
CDK1 = conditions: cited from earlier work
[3] = AML patient 49, dose level 1, Ref
[4] = AML patient 73, dose level 5, Relapse 66 mo
[5] = Total, 24 adults, all dose levels
[6] = dose level 1, 10 mg/m^2 (n = 3) + cytarabine
[7] = dose level 2, 20 mg/m^2 (n = 3) + cytarabine
[8] = dose level 4, 56 mg/m^2 (n = 6) + cytarabine
[9] = dose level 5, 140 mg (n = 6) + cytarabine

What does the source list for `Cn1cc(-c2cnn3c(N)c(Br)c([C@@H]4CCCNC4)nc23)cn1` [SCH 900776]?
Sets of samples with enhanced H2Ax phosphorylation ([1]; patients treated with 40 mg/m^2 SCH 900776 or higher): 3 of 5; Response rate (CR plus CRi) ([2]; 1 CRi of 6 patients at SCH 900776 doses ≤ 20 mg/m^2): 17%; CR/CRi rate ([2]; 2 of 10 patients with AML with adverse cytogenetics): 20%; CR/CRi rate ([2]; 2 of 10 patients with a complex karyotype): 20%; CR/CRi rate ([2]; 3 of 8 with secondary AML): 38%; CR/CRi rate ([2]; 4/8 with relapsed AML): 50%; Response rate (CR plus CRi) ([2]; 7 (5 CR, 2 CRi) of 18 patients at dose level 3 (40 mg/m^2) or higher): 39%; CR/CRi rate in patients with AML ([2]; 8 of 21 patients with AML): 38%; Overall response rate (CR plus CRi) ([2]; 8 of 24 patients, all dose levels): 33%; Complete tumor clearance (CTC) by day 14, rate ([2]; 12 of 24 patients, all dose levels): 50%; DFS (mo) ([2]; AML patient 25, dose level 3, Relapse 7 mo): 25.2+ mo; DFS (mo) [2, 3]: 2.0 mo; Response (CR/CRi) [2, 3]: CRi; DFS (mo) ([2]; AML patient 52, dose level 3, primary Ref): 2.2 mo; DFS (mo) ([2]; AML patient 55, dose level 3, primary Ref): 11.3 mo; DFS (mo) ([2]; AML patient 60, dose level 4, Relapse 8 mo): 22.4+ mo; DFS (mo) ([2]; AML patient 61, dose level 5, Relapse 19 mo): 18.1+ mo; DFS (mo) ([2]; AML patient 70, dose level 4, primary Ref): 9.7 mo; DFS (mo) [2, 4]: 0.2 mo; Response (CR/CRi) [2, 4]: CRi; Day 14 CTC (patients) [2, 5]: 12; Response (CR/CRi) (patients) [2, 5]: 8 (5/3): all AML; Response in pts with prior cytarabine ([2]; Total, 24 adults, high = prior 2 g/m^2/72 h infusion or high-dose cytarabine): 7 (6 high); Median duration of response ([2]; all patients with CR/CRi, range 0.2–27+): 10 months; Responders remaining alive ([2]; as of June 1, 2012, at 19+ to 30.5+ months): 5 of the 8; Response rate (CR plus CRi) ([2]; at least 2 of 6 in each of dose levels 3 through 5): ≥ 33%; Complete tumor clearance (CTC) by day 14, rate ([2]; at least 3 of 6 per level beginning at dose level 3 (40 mg/m^2)): ≥ 50%; Day 14 CTC (patients) [2, 6]: 1; Response (CR/CRi) (patients) [2, 6]: 1 (0/1): AML; Response in pts with prior cytarabine ([2]; dose level 1, 10 mg/m^2 (n = 3), high = prior 2 g/m^2/72 h infusion or high-dose cytarabine): 1 (high) ^a; Response in pts with prior cytarabine ([2]; dose level 2, 20 mg/m^2 (n = 3)): 0; Day 14 CTC (patients) [2, 7]: 1; Response (CR/CRi) (patients) [2, 7]: 0 (0/0); Day 14 CTC (patients) ([2]; dose level 3, 40 mg/m^2 (n = 6) + cytarabine): 4; Response in pts with prior cytarabine ([2]; dose level 3, 40 mg/m^2 (n = 6), high = prior 2 g/m^2/72 h infusion or high-dose cytarabine): 2 (both high); Day 14 CTC (patients) [2, 8]: 3; Response (CR/CRi) (patients) [2, 8]: 2 (2/0): both AML; Response in pts with prior cytarabine ([2]; dose level 4, 56 mg/m^2 (n = 6), high = prior 2 g/m^2/72 h infusion or high-dose cytarabine): 2 (1 high); Day 14 CTC (patients) [2, 9]: 3; Response (CR/CRi) (patients) [2, 9]: 2 (1/1): both AML; Response in pts with prior cytarabine ([2]; dose level 5, 140 mg (n = 6), high = prior 2 g/m^2/72 h infusion or high-dose cytarabine): 2 (both high); CR/CRi in patients who had day 14 CTC ([2]; human, in vivo): 8 of the 12; CR/CRi in patients who had residual leukemia on day 14 ([2]; human, in vivo): none; CR/CRi ([2]; patients with FLT3-ITD AML): none; Effect on Chk2 (Chk2): without substantial effect; Effect on CDK1 (CDK1): without substantial effect

With `Nc1ccn([C@@H]2O[C@H](CO)[C@@H](O)[C@@H]2O)c(=O)n1` [cytarabine, reference compound] as the compound, how does the “Samples with increase in H2Ax phosphorylation” value ([1]; marrow blasts, after 24 hours of continuous cytarabine infusion, before SCH 900776 (day 2)) read?
Its value is 2 of 10.
